The target in one experiment is T1, CSNK1D (Homo sapiens, UniProt P48730).
T1 construct: endogenous in cells
The experiment can be described thus: Kinobeads full dose-response competition binding: CSNK1D. As to conditions: Gene Name CSNK1D.

The next experiment deals with T2, CSNK1E (Homo sapiens, UniProt P49674).
T2 construct: endogenous in cells
In words: Kinobeads full dose-response competition binding: CSNK1E. Conditions: Gene Name CSNK1E.

In the next experiment the target is T3, SPR (Homo sapiens, UniProt P35270).
T3 construct: endogenous in cells
T3 sequence (P35270 whole entry): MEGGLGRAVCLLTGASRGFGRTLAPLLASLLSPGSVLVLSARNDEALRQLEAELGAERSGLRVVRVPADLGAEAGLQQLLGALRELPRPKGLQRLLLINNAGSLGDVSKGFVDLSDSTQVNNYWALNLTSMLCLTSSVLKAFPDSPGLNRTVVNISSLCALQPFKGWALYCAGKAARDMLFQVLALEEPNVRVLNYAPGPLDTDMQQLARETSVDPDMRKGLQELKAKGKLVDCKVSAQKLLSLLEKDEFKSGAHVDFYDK
The experiment can be described thus: Kinobeads full dose-response competition binding: SPR. As to conditions: Gene Name SPR.

The target in experiment [1] is T4, endogenous kinases and other proteins enriched by Kinobeads from mixed lysates of K-562, COLO-205, MV-4-11, SK-N-BE(2) and OVCAR-8 (Homo sapiens, UniProt P42680).
T4 construct: to maximize the representation of endogenous proteins; endogenous in cells
The experiment can be described thus: Kinobeads competition binding profiling, two doses (100 nM and 1 µM).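 Also: inhibitor preincubated 45 min at 4 °C in cell lysate, then bead pulldown. Bound protein quantified by label-free mass spectrometry relative to DMSO vehicle control.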 Conditions: read-out: Lestaurtinib Drugmatrix value, Gene Name TEC; target TEC; one Lestaurtinib control experiment/replicate (R1-R3).

Another experiment has as its target T5, GSK3A (Homo sapiens, UniProt P49840).
T5 construct: endogenous in cells
In words: Kinobeads two-dose competition binding: GSK3A. Conditions: read-out: Lestaurtinib Drugmatrix value, Gene Name GSK3A.

The target in another experiment is T6, PIK3CA (Homo sapiens, UniProt P42336).
T6 construct: a mixture of lysates from five cancer cell lines; endogenous in cells
The experiment can be described thus: Kinobeads competition binding, Lestaurtinib control replicates: PIK3CA. Conditions: read-out: Lestaurtinib Drugmatrix value; Gene Name PIK3CA; one column per experiment number and replicate (R1-R3).

In the next experiment the target is T7, PIM3 (Homo sapiens, UniProt Q86V86).
T7 construct: a mixture of lysates from five cancer cell lines; endogenous in cells
The experiment can be described thus: Kinobeads competition binding, Lestaurtinib control replicates: PIM3.

A further experiment has as its target T8, PRKACG (Homo sapiens, UniProt P22612).
T8 construct: endogenous in cells
In words: Kinobeads competition binding, Lestaurtinib control replicates: PRKACG. Conditions: read-out: Lestaurtinib Drugmatrix value; Gene Name PRKACG; one column per experiment number and replicate (R1-R3).

Another experiment has as its target T9, CIT (Homo sapiens, UniProt O14578).
T9 construct: endogenous in cells
The experiment can be described thus: Kinobeads full dose-response competition binding: CIT. As to conditions: Gene Name CIT.

The target of another experiment is T10, PRKCB (Homo sapiens, UniProt P05771).
T10 construct: endogenous in cells
T10 sequence (P05771 whole entry): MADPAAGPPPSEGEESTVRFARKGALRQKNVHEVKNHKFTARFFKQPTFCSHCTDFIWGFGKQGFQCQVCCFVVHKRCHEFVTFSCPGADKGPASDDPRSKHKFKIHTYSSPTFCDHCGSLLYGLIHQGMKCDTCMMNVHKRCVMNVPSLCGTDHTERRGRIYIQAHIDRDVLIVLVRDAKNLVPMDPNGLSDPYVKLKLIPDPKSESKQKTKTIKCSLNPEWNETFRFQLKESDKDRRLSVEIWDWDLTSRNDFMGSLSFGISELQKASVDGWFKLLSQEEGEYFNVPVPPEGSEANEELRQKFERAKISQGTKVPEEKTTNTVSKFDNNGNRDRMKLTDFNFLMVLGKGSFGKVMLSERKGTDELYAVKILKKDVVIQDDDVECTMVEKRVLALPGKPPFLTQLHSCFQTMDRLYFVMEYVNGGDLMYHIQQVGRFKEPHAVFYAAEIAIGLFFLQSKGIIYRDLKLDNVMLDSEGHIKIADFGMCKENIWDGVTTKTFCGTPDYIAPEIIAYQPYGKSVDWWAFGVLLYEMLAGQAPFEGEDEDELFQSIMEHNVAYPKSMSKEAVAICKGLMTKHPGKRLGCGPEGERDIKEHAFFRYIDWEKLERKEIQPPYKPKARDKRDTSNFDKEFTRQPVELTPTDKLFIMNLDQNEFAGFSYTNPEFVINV
In words: Kinobeads full dose-response competition binding: PRKCB. As to conditions: Gene Name PRKCB.

Where [2] appears, read: EC50 with Correction, doses in nM, read-out: apparent Kd.
Setting [3] is: eight-dose curve fit, doses in nM.

As a reminder, the EC50 is the midpoint of the concentration-response curve. A low value points to higher potency in that assay.

Structures are written as SMILES. Several values for one entry are separate records, joined by “and”; a condition that tells them apart may be missing. Equal entries are not always repeated. Where two headings read alike, the source gives them in different places.

T9 sequence (O14578 whole entry): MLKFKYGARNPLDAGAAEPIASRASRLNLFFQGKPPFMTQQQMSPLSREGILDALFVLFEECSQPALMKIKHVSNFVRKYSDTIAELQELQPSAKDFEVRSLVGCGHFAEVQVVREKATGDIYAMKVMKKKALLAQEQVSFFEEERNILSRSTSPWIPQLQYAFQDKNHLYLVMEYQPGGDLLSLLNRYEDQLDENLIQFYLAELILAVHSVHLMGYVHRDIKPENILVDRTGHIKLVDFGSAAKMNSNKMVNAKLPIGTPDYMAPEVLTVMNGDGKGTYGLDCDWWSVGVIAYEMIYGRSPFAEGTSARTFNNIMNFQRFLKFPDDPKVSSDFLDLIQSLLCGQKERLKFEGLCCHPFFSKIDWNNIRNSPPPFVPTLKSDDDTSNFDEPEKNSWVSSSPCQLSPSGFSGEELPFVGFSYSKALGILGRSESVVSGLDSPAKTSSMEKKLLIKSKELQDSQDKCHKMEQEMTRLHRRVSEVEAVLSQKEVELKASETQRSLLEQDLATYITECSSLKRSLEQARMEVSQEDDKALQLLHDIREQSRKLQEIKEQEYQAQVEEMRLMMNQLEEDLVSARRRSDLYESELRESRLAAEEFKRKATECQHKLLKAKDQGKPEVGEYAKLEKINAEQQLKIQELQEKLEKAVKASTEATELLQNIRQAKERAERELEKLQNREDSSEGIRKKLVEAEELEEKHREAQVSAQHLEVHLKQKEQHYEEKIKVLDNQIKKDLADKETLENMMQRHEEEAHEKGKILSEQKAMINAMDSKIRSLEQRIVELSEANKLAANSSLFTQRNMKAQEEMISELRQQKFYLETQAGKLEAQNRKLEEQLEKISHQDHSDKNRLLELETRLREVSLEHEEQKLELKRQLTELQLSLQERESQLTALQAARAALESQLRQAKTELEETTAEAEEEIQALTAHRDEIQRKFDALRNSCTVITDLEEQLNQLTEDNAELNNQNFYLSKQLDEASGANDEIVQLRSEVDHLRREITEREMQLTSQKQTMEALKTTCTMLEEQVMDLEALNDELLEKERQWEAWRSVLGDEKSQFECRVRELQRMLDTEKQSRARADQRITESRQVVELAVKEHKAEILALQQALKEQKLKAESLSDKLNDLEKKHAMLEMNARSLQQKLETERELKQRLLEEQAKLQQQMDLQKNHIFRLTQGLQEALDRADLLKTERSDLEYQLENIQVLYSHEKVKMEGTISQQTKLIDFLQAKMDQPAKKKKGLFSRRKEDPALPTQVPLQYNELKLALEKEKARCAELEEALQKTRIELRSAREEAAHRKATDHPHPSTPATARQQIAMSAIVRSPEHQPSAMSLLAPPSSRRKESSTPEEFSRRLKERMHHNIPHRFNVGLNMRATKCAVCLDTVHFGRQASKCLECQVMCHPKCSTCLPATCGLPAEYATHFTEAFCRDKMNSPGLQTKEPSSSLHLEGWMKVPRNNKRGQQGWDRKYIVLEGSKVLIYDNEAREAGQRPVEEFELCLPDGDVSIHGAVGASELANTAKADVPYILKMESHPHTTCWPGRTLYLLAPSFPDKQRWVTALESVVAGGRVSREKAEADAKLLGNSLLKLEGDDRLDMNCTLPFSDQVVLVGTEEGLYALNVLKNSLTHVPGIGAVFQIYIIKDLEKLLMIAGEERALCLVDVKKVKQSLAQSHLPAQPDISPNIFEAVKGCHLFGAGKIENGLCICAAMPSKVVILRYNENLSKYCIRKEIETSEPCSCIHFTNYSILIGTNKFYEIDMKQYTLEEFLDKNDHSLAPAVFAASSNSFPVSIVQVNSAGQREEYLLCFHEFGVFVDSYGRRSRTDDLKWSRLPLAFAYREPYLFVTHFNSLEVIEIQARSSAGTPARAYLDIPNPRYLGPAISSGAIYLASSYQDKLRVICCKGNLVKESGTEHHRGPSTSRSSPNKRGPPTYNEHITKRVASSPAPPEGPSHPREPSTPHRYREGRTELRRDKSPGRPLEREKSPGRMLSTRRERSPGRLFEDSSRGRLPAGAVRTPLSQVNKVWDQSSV
T1 sequence (P48730 whole entry): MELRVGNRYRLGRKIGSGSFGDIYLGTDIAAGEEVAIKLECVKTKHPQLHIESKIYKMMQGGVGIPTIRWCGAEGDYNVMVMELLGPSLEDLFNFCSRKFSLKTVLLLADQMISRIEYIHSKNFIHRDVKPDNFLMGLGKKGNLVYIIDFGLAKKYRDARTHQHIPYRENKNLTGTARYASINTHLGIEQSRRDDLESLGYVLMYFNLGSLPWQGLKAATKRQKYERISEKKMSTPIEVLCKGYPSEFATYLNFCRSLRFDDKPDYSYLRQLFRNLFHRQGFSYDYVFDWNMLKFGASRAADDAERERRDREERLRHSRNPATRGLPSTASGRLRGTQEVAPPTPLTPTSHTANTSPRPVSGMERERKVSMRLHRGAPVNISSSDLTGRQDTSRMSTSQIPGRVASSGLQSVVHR
T2 sequence (P49674 whole entry): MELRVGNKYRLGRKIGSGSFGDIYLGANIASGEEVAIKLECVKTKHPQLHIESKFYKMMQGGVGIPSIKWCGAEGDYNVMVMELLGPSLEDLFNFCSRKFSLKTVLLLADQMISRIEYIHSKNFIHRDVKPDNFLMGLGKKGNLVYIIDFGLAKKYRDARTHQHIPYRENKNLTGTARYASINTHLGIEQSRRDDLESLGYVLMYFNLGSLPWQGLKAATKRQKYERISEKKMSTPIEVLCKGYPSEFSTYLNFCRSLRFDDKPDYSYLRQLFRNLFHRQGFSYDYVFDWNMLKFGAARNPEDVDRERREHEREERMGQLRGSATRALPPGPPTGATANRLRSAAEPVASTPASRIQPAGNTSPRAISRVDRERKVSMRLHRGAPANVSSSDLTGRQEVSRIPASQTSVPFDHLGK
T5 sequence (P49840 whole entry): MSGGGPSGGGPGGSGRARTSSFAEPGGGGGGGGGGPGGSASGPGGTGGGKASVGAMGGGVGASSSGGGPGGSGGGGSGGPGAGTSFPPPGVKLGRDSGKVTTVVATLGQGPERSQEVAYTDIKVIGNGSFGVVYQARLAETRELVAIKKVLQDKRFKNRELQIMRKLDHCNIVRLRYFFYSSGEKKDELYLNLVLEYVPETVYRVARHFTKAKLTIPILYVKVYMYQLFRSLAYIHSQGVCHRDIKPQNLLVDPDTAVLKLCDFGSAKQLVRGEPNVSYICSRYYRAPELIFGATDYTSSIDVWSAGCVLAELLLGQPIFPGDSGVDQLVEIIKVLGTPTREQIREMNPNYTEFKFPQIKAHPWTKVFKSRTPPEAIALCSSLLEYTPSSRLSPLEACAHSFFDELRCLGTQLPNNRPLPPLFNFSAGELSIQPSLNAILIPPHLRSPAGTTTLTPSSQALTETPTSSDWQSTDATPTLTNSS
T8 sequence (P22612 whole entry): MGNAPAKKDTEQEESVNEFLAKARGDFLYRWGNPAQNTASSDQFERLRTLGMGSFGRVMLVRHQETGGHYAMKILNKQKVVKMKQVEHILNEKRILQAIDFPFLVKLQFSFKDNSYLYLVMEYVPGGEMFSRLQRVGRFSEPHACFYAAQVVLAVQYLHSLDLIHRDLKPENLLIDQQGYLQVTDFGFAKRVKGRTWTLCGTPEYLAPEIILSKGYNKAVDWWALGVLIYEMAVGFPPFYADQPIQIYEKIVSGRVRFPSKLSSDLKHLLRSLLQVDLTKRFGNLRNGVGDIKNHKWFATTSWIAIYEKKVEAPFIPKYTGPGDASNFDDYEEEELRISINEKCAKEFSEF

On to `NCc1ccc(-c2nc(-c3ccncc3)c(-c3ccc(Cl)c(O)c3)[nH]2)cc1` [SB-476429-A], for which the “Relative Intensity 0.3nM” value on CSNK1D (0.3nM compound, DMSO = 1) was determined as 0.9053; on CSNK1E (0.3nM compound, DMSO = 1) it was 1.09; on SPR (0.3nM compound, DMSO = 1), 0.9627. The “Relative Intensity 1nM” value amounted to 1.1 on CSNK1D (1nM compound, DMSO = 1); 1.082 on CSNK1E (1nM compound, DMSO = 1); 0.9101 on SPR (1nM compound, DMSO = 1). In addition, the “Relative Intensity 3nM” value at CSNK1D (3nM compound, DMSO = 1) is on record as 1.076; on CSNK1E (3nM compound, DMSO = 1), 1.034; at SPR (3nM compound, DMSO = 1) it was 0.8696. The “Relative Intensity 10nM” value at CSNK1D (10nM compound, DMSO = 1) is on record as 1.106; on CSNK1E (10nM compound, DMSO = 1), 1.047; on SPR (10nM compound, DMSO = 1), 0.7693. For the same molecule, the “Relative Intensity 30nM” value at CSNK1D (30nM compound, DMSO = 1) was found to be 0.9763; on CSNK1E (30nM compound, DMSO = 1), 0.8419; on SPR (30nM compound, DMSO = 1), 0.5216. For the same molecule, the “Relative Intensity 100nM” value is listed as 0.9322 on CSNK1D (100nM compound, DMSO = 1); 0.9482 on CSNK1E (100nM compound, DMSO = 1); 0.1442 on SPR (100nM compound, DMSO = 1). The “Relative Intensity 300nM” value came out at 0.7176 at CSNK1D (300nM compound, DMSO = 1); 0.7771 on CSNK1E (300nM compound, DMSO = 1); 0.02935 at SPR (300nM compound, DMSO = 1). For the same molecule, the “Relative Intensity 1000nM” value on CSNK1D (1000nM compound, DMSO = 1) came out at 0.4933; on CSNK1E (1000nM compound, DMSO = 1), 0.494; on SPR (1000nM compound, DMSO = 1), 0.01082. The Kd stood at 300 nM on CSNK1D (setting [2]), 642 nM at CSNK1E (setting [2]) and 32.8 nM at SPR (setting [2]). Also, the values for the EC50 at CSNK1D (setting [3]), at CSNK1E (setting [3]) and on SPR (setting [3]) were 300 nM, 642 nM and 32.8 nM, respectively.
On to `C[C@]12O[C@H](C[C@]1(O)CO)n1c3ccccc3c3c4c(c5c6ccccc6n2c5c31)CNC4=O` [Lestaurtinib], for which the potency estimated from few doses in [1] is 895 nM; at GSK3A, 175 nM; on PIK3CA, 156 nM; at PIM3 (read-out: Lestaurtinib Drugmatrix value, PIM3, Gene Name PIM3; one column per experiment number and replicate (R1-R3)) it was 611 nM; at PIM3 (read-out: Lestaurtinib Drugmatrix value, PIM3; Gene Name PIM3; one column per experiment number and replicate (R1-R3)), 656 nM and 795 nM; on PRKACG it was 769 nM.
On to `CCn1c(-c2nonc2N)nc2c(C#CC(C)(C)O)nc(OCCN)cc21` [GSK902056A], for which the “Relative Intensity 0.3nM” value on CIT (0.3nM compound, DMSO = 1) is given as 1.0296; at PRKCB (0.3nM compound, DMSO = 1), 1.022. The “Relative Intensity 1nM” value is reported as 1.0023 at CIT (1nM compound, DMSO = 1) and 1.013 at PRKCB (1nM compound, DMSO = 1). For the same molecule, the “Relative Intensity 3nM” value at CIT (3nM compound, DMSO = 1) came out at 1.019; at PRKCB (3nM compound, DMSO = 1) it was 1.059. For the same molecule, the “Relative Intensity 10nM” value was determined as 1.082 on CIT (10nM compound, DMSO = 1) and 1.038 on PRKCB (10nM compound, DMSO = 1). Moreover, the “Relative Intensity 30nM” value at CIT (30nM compound, DMSO = 1) came to 1.01; on PRKCB (30nM compound, DMSO = 1), 0.9653. In addition, the “Relative Intensity 100nM” value on CIT (100nM compound, DMSO = 1) was 0.9604; on PRKCB (100nM compound, DMSO = 1), 0.9. The “Relative Intensity 300nM” value on CIT (300nM compound, DMSO = 1) stood at 0.7575; on PRKCB (300nM compound, DMSO = 1), 0.7943. Further, the “Relative Intensity 1000nM” value at CIT (1000nM compound, DMSO = 1) was 0.5648; at PRKCB (1000nM compound, DMSO = 1), 0.5993. The figures for the Kd at CIT (setting [2]) and at PRKCB (setting [2]) were 279 nM and 401 nM, respectively. In addition, the concentration for a half-maximal effect (EC50) on CIT (setting [3]) came to 279 nM; at PRKCB (setting [3]), 410 nM.
